In brackets after ≈: the same amount, converted by molar mass. Several values for one entry are separate records, joined by “and”; a condition that tells them apart may be missing. Identical values can stand only once.
What was measured:
[1] = system: human laryngeal carcinoma (HEP2) cells; test: SRB cytotoxic assay, HEP2; type: cell-based; details: HEp-2, 48 h
Description: All the prepared compounds were screened at a concentration of 100 µg/mL against six different human cell lines: human laryngeal carcinoma (HEP2), human colorectal carcinoma (HCT116), human breast carcinoma (MCF7), human Lung carcinoma (A549), human liver carcinoma (HEPG2), and normal African Green monkey kidney cell line (VERO). Doxorubicin was used as a positive control for comparison purposes.
The human laryngeal carcinoma (HEP2), colorectal carcinoma (HCT116), breast carcinoma (MCF7), Lung carcinoma (A549), liver carcinoma (HEPG2), and normal African Green monkey kidney cell line (VERO) were purchased from American Tissue Culture Collection (Rockville, MD, USA). The cells were treated for 48 h with a single dose (100 µg/mL) of all the tested chalcones. […] In brief, the cells were seeded in a 96-well microtiter plate at a concentration of 5×10^3 cells/well in 100 µL fresh RPMI-1640 medium and left to attach to the plates for 24 h. Then, cells were incubated with 100 μL of different concentrations (50, 25, 12.5, 6.25, and 0.0 µg/mL) of 5c in triplicate at 37 °C for 48 h. After that, the cells were fixed with 10 µL cold 100% Trichloroacetic acid (TCA) for 1h at 4 °C. The wells were then washed 1 time with distilled water using (automatic Tecan washer, Germany) and stained for 30 min at room temperature with 50 µL 0.4% SRB dissolved in 1% acetic acid. The plates were air-dried and the dye was solubilized with 100 µl/well of 1M tris base (pH 10.5) for 5 min. The optical density (O.D.) of each well was measured spectrophotometrically at 570 nm with an ELISA microplate reader (Sunrise Tecan reader, Germany) with automatic shaking for 30 seconds before reading. The mean background absorbance was subtracted automatically and mean values for each drug concentration were calculated. The percentage of cell survival was calculated as follows: Survival fraction= O.D. (treated cells)/ O.D. (control cells) (Bhat et al. [2023]).

[2] = system: Caspase 9; test: ELISA, Caspase 9 concentration; type: cell-based, human
Description: (§1) The concentrations of matrix metalloproteinase-2 (MMP2), matrix metalloproteinase-9 (MMP9), Bcl2, BAX, P53, Malondialdehyde (MDA), Glutathione (GSH), caspase 8, caspase 9 and IL-6 were measured quantitatively in 5c treated MCF7 and HEP2 cells using ELISA (Enzyme-Linked Immunosorbent Assay) (Table 4). Gelatinases are a collective word for MMP-2 and MMP-9, where MMP-2 is gelatinase-A and MMP-9 is gelatinase-B. Solid tumor invasion, metastasis, and angiogenesis have long been linked to gelatinases (Das et al. [2021]). […] Bcl2 is a crucial protein that targets apoptosis inhibition. It is regarded as a predictive biomarker or therapeutic target in the diagnosis of cancer due to its broad expression in a variety of cancers (Porter et al. [2009]). […] The pro-apoptotic protein BAX permeabilizes the mitochondrial outer membrane by changing from a cytosolic monomer to a hazardous oligomer triggering the apoptosis process (Fulda and Debatin [2006]). […] P53 transcription factor performs an essential tumor suppressor role by coordinating a wide range of physiological responses, including DNA repair, cell cycle arrest, cellular senescence, cell death, cell differentiation, and metabolism (Liebl and Hofmann [2021]). It was activated in MCF7 and HEP2-treated cells with values (4.28 and 3.109 ng/mL), respectively, compared to their controls (3.44 and 2.06 ng/mL). […]

[3] = system: Glutathione (GSH); test: ELISA, GSH concentration; type: cell-based, human
Description: as §1

SMILES: COc1ccc(NC(=O)COc2ccc(C=CC(=O)c3cccs3)cc2)cc1 [Compound 5c, N-(4-Methoxyphenyl)-2-(4-(3-oxo-3-(thiophen-2-yl)prop-1-en-1-yl)phenoxy)acetamide]
- IC50 [1]: 12 µg/mL (≈ 30.5 µM)
- inhibition at 100 µg/mL ([1]; single dose 100 µg/mL, read-out: %Inhibition at100 µg/mL HEP2): > 75%
- Caspase9 concentration ([2]; 5c treated HEP2 cells, untreated 3.70±0.18): 27.54 ng/mL and 27.54 ± 0.68 ng/mL
- Caspase9 concentration ([2]; 5c treated MCF7 cells, untreated 3.66±0.49): 28.03 ng/mL and 28.03 ± 0.49 ng/mL
- GSH concentration ([3]; 5c treated HEP2 cells, untreated 0.668±0.010): 0.821 ng/mL and 0.821 ± 0.009 ng/mL
- GSH concentration ([3]; 5c treated MCF7 cells, untreated 0.737±0.009): 0.939 ng/mL and 0.939 ± 0.022 ng/mL
